Tests used:
Experiment in all cases: biochemical
Parameters in all cases: species or system HEK293/K-562/placenta mixed human extract; Kinobeads chemoproteomic competition binding, quantified by TMT LC-MS/MS, dose response up to 20 uM
[1] = molecular target: CDKL5 (Homo sapiens, UniProt O76039)
[2] = molecular target: KIT (Homo sapiens, UniProt P10721)
[3] = molecular target: CAMK2G (Homo sapiens, UniProt Q13555)
[4] = molecular target: JAK2 (Homo sapiens, UniProt O60674)
[5] = molecular target: PRKD1 (Homo sapiens, UniProt Q15139)
[6] = molecular target: OXSR1 (Homo sapiens, UniProt O95747)
[7] = molecular target: CAMK2D (Homo sapiens, UniProt Q13557)
[8] = molecular target: MAP2K1 (Homo sapiens, UniProt Q02750)
[9] = molecular target: ADCK1 (Homo sapiens, UniProt Q86TW2)
[10] = molecular target: IRAK4 (Homo sapiens, UniProt Q9NWZ3)
[11] = molecular target: PRKCB (Homo sapiens, UniProt P05771)
[12] = molecular target: IKBKG (Homo sapiens, UniProt Q9Y6K9)
[13] = molecular target: EPHA4 (Homo sapiens, UniProt P54764)
[14] = molecular target: AXL (Homo sapiens, UniProt P30530)
[15] = molecular target: CHEK1 (Homo sapiens, UniProt O14757)
[16] = molecular target: SNRK (Homo sapiens, UniProt Q9NRH2)
[17] = molecular target: PAK4 (Homo sapiens, UniProt O96013)
[18] = molecular target: WEE1 (Homo sapiens, UniProt P30291)
[19] = molecular target: PRKCA (Homo sapiens, UniProt P17252)
[20] = molecular target: MAP3K6 (Homo sapiens, UniProt O95382)
[21] = molecular target: FRK (Homo sapiens, UniProt P42685)

Measured: IC50

Sequence of ADCK1 (Q86TW2 whole entry): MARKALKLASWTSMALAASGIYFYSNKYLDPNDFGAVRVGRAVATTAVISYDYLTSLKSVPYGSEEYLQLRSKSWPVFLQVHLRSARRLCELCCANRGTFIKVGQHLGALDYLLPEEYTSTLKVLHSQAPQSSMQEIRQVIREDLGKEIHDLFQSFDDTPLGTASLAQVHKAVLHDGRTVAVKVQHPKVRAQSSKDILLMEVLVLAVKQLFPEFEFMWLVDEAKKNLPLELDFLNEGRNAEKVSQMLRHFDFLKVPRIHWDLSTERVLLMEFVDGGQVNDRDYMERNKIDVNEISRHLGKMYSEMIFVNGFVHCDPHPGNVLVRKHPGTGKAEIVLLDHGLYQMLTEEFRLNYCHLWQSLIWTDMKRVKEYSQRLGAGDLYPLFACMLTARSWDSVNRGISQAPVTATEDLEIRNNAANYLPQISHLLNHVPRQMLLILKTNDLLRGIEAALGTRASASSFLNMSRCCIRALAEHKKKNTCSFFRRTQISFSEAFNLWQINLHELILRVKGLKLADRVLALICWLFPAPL
Sequence of JAK2 (O60674 whole entry): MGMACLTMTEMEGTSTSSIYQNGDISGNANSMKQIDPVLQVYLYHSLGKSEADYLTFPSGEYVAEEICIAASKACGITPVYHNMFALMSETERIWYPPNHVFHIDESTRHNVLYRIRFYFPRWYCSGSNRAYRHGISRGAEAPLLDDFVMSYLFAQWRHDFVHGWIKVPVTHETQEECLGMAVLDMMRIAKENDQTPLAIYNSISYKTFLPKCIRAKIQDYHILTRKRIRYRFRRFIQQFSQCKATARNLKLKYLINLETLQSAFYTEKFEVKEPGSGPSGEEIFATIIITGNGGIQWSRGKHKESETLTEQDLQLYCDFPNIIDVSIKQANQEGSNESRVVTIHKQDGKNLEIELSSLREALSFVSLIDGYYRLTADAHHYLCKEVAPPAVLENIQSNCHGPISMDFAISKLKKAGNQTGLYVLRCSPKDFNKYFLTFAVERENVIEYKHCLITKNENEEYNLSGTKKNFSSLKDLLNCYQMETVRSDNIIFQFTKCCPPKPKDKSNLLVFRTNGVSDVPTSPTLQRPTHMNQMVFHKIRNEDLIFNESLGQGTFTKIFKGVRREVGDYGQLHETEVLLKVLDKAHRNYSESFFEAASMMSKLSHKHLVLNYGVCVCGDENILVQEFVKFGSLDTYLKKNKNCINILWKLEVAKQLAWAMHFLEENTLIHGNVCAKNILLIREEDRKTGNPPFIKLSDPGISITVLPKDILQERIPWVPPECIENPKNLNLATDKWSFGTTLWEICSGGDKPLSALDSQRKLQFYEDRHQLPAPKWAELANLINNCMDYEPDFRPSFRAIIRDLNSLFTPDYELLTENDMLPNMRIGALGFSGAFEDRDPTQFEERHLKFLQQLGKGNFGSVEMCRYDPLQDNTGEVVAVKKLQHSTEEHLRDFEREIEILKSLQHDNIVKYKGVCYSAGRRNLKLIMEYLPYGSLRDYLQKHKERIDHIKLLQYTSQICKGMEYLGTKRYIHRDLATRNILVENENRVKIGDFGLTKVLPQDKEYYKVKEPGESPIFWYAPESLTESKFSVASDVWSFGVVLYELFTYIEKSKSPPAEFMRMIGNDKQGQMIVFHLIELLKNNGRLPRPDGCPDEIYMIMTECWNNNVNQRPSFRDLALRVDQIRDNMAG
Sequence of WEE1 (P30291 whole entry): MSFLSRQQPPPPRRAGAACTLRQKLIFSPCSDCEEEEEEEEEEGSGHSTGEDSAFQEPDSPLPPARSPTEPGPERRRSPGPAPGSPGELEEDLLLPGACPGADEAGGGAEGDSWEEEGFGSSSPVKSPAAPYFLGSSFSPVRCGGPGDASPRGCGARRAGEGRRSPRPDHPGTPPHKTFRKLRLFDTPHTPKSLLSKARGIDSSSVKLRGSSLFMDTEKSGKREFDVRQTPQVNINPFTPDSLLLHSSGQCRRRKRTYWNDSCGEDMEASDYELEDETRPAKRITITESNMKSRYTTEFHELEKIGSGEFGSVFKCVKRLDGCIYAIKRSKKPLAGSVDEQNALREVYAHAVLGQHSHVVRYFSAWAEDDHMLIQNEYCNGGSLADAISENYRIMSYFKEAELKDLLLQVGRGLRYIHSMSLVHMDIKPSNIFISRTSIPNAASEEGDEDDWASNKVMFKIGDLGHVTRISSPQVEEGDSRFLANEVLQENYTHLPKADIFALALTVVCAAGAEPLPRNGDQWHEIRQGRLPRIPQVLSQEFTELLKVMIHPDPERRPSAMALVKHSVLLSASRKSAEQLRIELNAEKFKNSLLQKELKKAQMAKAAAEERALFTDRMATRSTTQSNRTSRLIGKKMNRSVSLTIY
Sequence of EPHA4 (P54764 whole entry): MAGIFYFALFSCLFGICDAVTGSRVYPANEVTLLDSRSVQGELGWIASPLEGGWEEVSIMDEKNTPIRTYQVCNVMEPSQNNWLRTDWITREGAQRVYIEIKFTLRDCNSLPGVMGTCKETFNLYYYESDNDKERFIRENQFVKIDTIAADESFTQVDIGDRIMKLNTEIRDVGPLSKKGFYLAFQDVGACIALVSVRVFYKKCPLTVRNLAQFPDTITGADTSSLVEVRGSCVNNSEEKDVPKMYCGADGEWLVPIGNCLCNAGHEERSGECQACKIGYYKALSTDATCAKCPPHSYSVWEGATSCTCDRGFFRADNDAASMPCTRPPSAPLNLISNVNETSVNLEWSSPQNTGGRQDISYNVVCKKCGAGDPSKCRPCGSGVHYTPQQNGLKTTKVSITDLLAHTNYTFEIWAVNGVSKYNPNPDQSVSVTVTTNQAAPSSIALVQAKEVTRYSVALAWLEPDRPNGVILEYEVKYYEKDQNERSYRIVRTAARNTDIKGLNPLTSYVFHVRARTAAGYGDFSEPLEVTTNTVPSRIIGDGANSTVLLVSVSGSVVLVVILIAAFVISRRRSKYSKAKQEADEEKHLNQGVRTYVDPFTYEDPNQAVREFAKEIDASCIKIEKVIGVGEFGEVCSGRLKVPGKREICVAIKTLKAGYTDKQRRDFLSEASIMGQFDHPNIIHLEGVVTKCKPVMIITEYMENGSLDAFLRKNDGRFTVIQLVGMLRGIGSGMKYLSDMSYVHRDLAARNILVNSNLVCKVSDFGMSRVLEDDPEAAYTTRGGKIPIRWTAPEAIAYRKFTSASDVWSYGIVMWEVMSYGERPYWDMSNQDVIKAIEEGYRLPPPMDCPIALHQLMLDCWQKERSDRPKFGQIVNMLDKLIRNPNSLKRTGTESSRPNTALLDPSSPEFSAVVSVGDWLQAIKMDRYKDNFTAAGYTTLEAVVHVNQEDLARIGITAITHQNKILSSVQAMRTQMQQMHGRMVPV
Sequence of AXL (P30530 whole entry): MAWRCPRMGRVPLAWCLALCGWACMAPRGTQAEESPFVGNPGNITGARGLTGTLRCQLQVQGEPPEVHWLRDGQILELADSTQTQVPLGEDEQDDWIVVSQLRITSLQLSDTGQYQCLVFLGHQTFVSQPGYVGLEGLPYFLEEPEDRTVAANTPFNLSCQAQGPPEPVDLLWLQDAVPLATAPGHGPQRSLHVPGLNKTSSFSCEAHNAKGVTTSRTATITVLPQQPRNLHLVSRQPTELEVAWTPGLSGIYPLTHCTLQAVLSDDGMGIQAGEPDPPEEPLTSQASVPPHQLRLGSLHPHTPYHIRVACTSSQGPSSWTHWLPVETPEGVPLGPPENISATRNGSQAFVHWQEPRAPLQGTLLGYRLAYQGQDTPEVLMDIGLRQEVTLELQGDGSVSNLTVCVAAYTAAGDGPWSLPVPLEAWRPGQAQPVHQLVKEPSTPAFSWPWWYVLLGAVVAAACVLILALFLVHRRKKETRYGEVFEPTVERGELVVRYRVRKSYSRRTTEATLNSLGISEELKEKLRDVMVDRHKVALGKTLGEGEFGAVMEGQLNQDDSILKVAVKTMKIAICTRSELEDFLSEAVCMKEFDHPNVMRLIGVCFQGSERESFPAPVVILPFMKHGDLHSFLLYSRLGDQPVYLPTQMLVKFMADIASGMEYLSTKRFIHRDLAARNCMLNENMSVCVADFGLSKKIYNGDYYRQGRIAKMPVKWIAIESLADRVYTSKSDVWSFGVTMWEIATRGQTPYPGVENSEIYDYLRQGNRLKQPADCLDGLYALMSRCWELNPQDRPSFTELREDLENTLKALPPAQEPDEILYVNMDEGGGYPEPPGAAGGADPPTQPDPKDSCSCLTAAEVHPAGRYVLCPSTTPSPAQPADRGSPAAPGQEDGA

COc1nc(N[C@H]2CC[C@H](NS(=O)(=O)CC(C)C)CC2)nc2[nH]nc(N3CCOC[C@H]3C)c12 [compound 39, N-(trans-4-((4-Methoxy-3-((R)-3-methylmorpholino)-1H-pyrazolo[3,4-d]pyrimidin-6-yl)amino)cyclohexyl)-2-methylpropane-1-sulfonamide]
≥ 20 µM: all assays above

— publication PMC6407917, “Identification of GSK3186899/DDD853651 as a Preclinical Development Candidate for the Treatment of Visceral Leishmaniasis” (Journal of Medicinal Chemistry, 2018)
